Results as given in ChEMBL document CHEMBL4393706, “Ursolic acid derivative induces apoptosis in glioma cells through down-regulation of cAMP” (2019).
Activity calls are given as the source filed them. No cut-off for these calls is given here.

Experiments:
C6 [1] = assay: Antiproliferative activity against rat C6 cells assessed as cell proliferation at 2 uM measured after 48 hrs relative to control; format: functional; conditions: C6, 48 h, read-out: Activity
C6 [2] = assay: Antiproliferative activity against rat C6 cells measured after 48 hrs by MTT assay; format: functional, cell-based
U-251 [3] = assay: Cell cycle arrest in human U251 cells assessed as accumulation at G2/M phase at 8 uM measured after 48 hrs by propidium iodide staining based FACScan flow cytometry (reference value: 52.67 %); format: functional
U-251 [4] = assay: Induction of morphological changes in human U251 cells assessed as appearance of lipid droplets at 10 uM measured after 48 hrs by transmission electron microscopy; format: functional, cell-based
C6 [5] = assay: Antiproliferative activity against rat C6 cells assessed as cell proliferation at 10 uM measured after 48 hrs relative to control; format: functional; conditions: C6, 48 h, read-out: Activity
U-251 [6] = assay: Induction of apoptosis in human U251 cells assessed as increase in apoptotic cells at 2 uM measured after 48 hrs by annexin V/FITC-propidium iodide staining-based flow cytometric method; format: functional, cell-based
U-251 [7] = assay: Antiproliferative activity against human U251 cells measured after 48 hrs by MTT assay; format: functional, cell-based
C6 [8] = assay: Antiproliferative activity against rat C6 cells assessed as cell proliferation at 6 uM measured after 48 hrs relative to control; format: functional; conditions: C6, 48 h, read-out: Activity
C6 [9] = assay: Antiproliferative activity against rat C6 cells assessed as cell proliferation at 4 uM measured after 48 hrs relative to control; format: functional; conditions: C6, 48 h, read-out: Activity
U-251 [10] = assay: Antiproliferative activity against human U251 cells assessed as cell proliferation at 10 uM measured after 48 hrs relative to control; format: functional; conditions: U-251, 48 h, read-out: Activity
U-251 [11] = assay: Cell cycle arrest in human U251 cells assessed as accumulation at G0/G1 phase at 10 uM measured after 48 hrs by propidium iodide staining based FACScan flow cytometry (reference value: 29.21 %); format: functional
U-251 [12] = assay: Antiproliferative activity against human U251 cells assessed as reduction in cAMP level at 4 to 10 uM measured after 48 hrs by radio-immunoassay; format: functional, cell-based
U-251 [13] = assay: Induction of morphological changes in human U251 cells assessed as membrane blebbing at 6 to 10 uM measured after 48 hrs by transmission electron microscopy; format: functional, cell-based
U-251 [14] = assay: Antiproliferative activity against human U251 cells assessed as cell proliferation at 8 uM measured after 48 hrs relative to control; format: functional; conditions: U-251, 48 h, read-out: Activity
U-251 [15] = assay: Cell cycle arrest in human U251 cells assessed as accumulation at S phase at 8 uM measured after 48 hrs by propidium iodide staining based FACScan flow cytometry (reference value: 16.34 %); format: functional
U-251 [16] = assay: Induction of apoptosis in human U251 cells assessed as apoptotic cells at 6 uM measured after 48 hrs by annexin V/FITC-propidium iodide staining-based flow cytometric method relative to control; format: functional
U-251 [17] = assay: Induction of apoptosis in human U251 cells assessed as apoptotic cells at 8 uM measured after 48 hrs by annexin V/FITC-propidium iodide staining-based flow cytometric method relative to control; format: functional
U-251 [18] = assay: Antiproliferative activity against human U251 cells assessed as reduction in cAMP level at 2 uM measured after 48 hrs by radio-immunoassay; format: functional, cell-based
U-251 [19] = assay: Induction of autophagy in human U251 cells assessed as morphological changes at 10 uM measured after 48 hrs by transmission electron microscopy; format: functional, cell-based
U-251 [20] = assay: Cell cycle arrest in human U251 cells assessed as accumulation at S phase at 10 uM measured after 48 hrs by propidium iodide staining based FACScan flow cytometry (reference value: 16.34 %); format: functional
U-251 [21] = assay: Induction of morphological changes in human U251 cells assessed as chromatin condensation at 6 to 10 uM measured after 48 hrs by transmission electron microscopy; format: functional, cell-based
U-251 [22] = assay: Cell cycle arrest in human U251 cells assessed as accumulation at G0/G1 phase at 8 uM measured after 48 hrs by propidium iodide staining based FACScan flow cytometry (reference value: 29.21 %); format: functional
U-251 [23] = assay: Antiproliferative activity against human U251 cells assessed as cell proliferation at 4 uM measured after 48 hrs relative to control; format: functional; conditions: U-251, 48 h, read-out: Activity
U-251 [24] = assay: Induction of morphological changes in human U251 cells assessed as movement of chromatin granules towards periphery of nucleoplasm at 10 uM measured after 48 hrs by transmission electron microscopy; format: functional, cell-based
U-251 [25] = assay: Cytotoxicity against human U251 cells at 5 uM measured after 48 hrs by MTT assay; format: functional, cell-based
U-251 [26] = assay: Induction of morphological changes in human U251 cells assessed as inhibtion of cell surface extension at 6 to 10 uM measured after 48 hrs by scanning electron microscopy; format: functional, cell-based
U-251 [27] = assay: Induction of apoptosis in human U251 cells assessed as apoptotic cells at 4 uM measured after 48 hrs by annexin V/FITC-propidium iodide staining-based flow cytometric method ( Rvb = 2.34%); format: functional
U-251 [28] = assay: Cell cycle arrest in human U251 cells assessed as accumulation at G0/G1 phase at 4 uM measured after 48 hrs by propidium iodide staining based FACScan flow cytometry (reference value: 29.21 %); format: functional
U-251 [29] = assay: Cell cycle arrest in human U251 cells assessed as accumulation at G2/M phase at 10 uM measured after 48 hrs by propidium iodide staining based FACScan flow cytometry (reference value: 52.67 %); format: functional
U-251 [30] = assay: Cell cycle arrest in human U251 cells assessed as accumulation at G2/M phase at 6 uM measured after 48 hrs by propidium iodide staining based FACScan flow cytometry (reference value: 52.67 %); format: functional
U-251 [31] = assay: Induction of morphological changes in human U251 cells assessed as inhibtion of microvilli at 6 to 10 uM measured after 48 hrs by scanning electron microscopy; format: functional, cell-based
U-251 [32] = assay: Induction of morphological changes in human U251 cells assessed as appearance of foamy cytoplasmic material at 6 to 10 uM measured after 48 hrs by transmission electron microscopy; format: functional, cell-based
U-251 [33] = assay: Antiproliferative activity against human U251 cells assessed as reduction in cAMP level at 6 uM measured after 48 hrs by radio-immunoassay relative to control; format: functional; set-up: scale not given: the % may be the effect or the level left
U-251 [34] = assay: Cell cycle arrest in human U251 cells assessed as accumulation at S phase at 6 uM measured after 48 hrs by propidium iodide staining based FACScan flow cytometry (reference value: 16.34 %); format: functional
U-251 [35] = assay: Induction of morphological changes in human U251 cells assessed as appearance of autophagic vacuoles at 6 to 10 uM measured after 48 hrs by transmission electron microscopy; format: functional, cell-based
U-251 [36] = assay: Induction of apoptosis in human U251 cells assessed as apoptotic cells at 10 uM measured after 48 hrs by annexin V/FITC-propidium iodide staining-based flow cytometric method relative to control; format: functional
U-251 [37] = assay: Cell cycle arrest in human U251 cells assessed as accumulation at G0/G1 phase at 6 uM measured after 48 hrs by propidium iodide staining based FACScan flow cytometry (reference value: 29.21 %); format: functional
U-251 [38] = assay: Antiproliferative activity against human U251 cells assessed as cell proliferation at 2 uM measured after 48 hrs relative to control; format: functional; conditions: U-251, 48 h, read-out: Activity
U-251 [39] = assay: Antiproliferative activity against human U251 cells assessed as cell proliferation at 6 uM measured after 48 hrs relative to control; format: functional; conditions: U-251, 48 h, read-out: Activity
C6 [40] = assay: Antiproliferative activity against rat C6 cells assessed as cell proliferation at 8 uM measured after 48 hrs relative to control; format: functional; conditions: C6, 48 h, read-out: Activity

SMILES: C[C@H]1[C@H](C)CC[C@]2(C(=O)O)CC[C@]3(C)C(=CC[C@@H]4[C@@]5(C)C/C(=C(\c6ccc(O)cc6O)C(c6ccccc6O)c6c[nH]c7ccccc67)C(=O)C(C)(C)[C@@H]5CC[C@]43C)[C@H]12 (stereo not given in full)
- growth at 2 µM (C6 [1]): 99%
- Activity (C6 [2]): Dose-dependent effect
- Activity (U-251 [3]): 42.45%
- Activity (U-251 [4]): Active
- growth at 10 µM (C6 [5]): 21%
- Activity (U-251 [6]): inactive
- Activity (U-251 [7]): Dose-dependent effect
- growth at 6 µM (C6 [8]): 68%
- growth at 4 µM (C6 [9]): 86%
- growth at 10 µM (U-251 [10]): 17%
- Activity (U-251 [11]): 53.76%
- Activity (U-251 [12]): Active
- Activity (U-251 [13]): Active
- growth at 8 µM (U-251 [14]): 39%
- Activity (U-251 [15]): 11.78%
- Activity (U-251 [16]): 21.65%
- Activity (U-251 [17]): 39.78%
- Activity (U-251 [18]): inactive
- Activity (U-251 [19]): Active
- Activity (U-251 [20]): 9.65%
- Activity (U-251 [21]): Active
- Activity (U-251 [22]): 41.78%
- growth at 4 µM (U-251 [23]): 83%
- Activity (U-251 [24]): Active
- Activity (U-251 [25]): Active
- Activity (U-251 [26]): Active
- Activity (U-251 [27]): 8.56%
- Activity (U-251 [28]): 32.44%
- Activity (U-251 [29]): 35.23%
- Activity (U-251 [30]): 49.26%
- Activity (U-251 [31]): Active
- Activity (U-251 [32]): Active
- Activity (U-251 [33]): 50%
- Activity (U-251 [34]): 12.51%
- Activity (U-251 [35]): Active
- Activity (U-251 [36]): 69.32%
- Activity (U-251 [37]): 36.16%
- growth at 2 µM (U-251 [38]): 99%
- growth at 6 µM (U-251 [39]): 61%
- growth at 8 µM (C6 [40]): 43%
